Measurements as given in PubChem BioAssay AID1189 (EPA DSSTox, 2008).
Activity calls are given as the source filed them.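 The calls were made as follows: active = a tumor-causing dose value with its tumor site reported for any sex and species group of a rodent or other animal cancer study; inconclusive = only studies judged inadequate by the national testing program; inactive = tested in at least one study, none positive.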

Test: DSSTox (CPDBAS) Carcinogenic Potency Database Summary SingleCellCall Results
Settings: animal chronic carcinogenicity bioassays, CPDB summary call
How it was run: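 Categorical carcinogenicity call compiled from published chronic rodent and other animal cancer bioassays; based on the most positive result across experiments for each sex-species, assigned on minimal evidence for or against activity.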

Structure (SMILES)	outcome
C[C@H]1C(=O)O[C@@H]2CCN3CC=C(COC(=O)[C@](C)(O)[C@]1(C)O)[C@H]23	active
O=C(O)/C=C/c1ccc(O)c(O)c1	active
NCCCCCCCCCCC(=O)O	active
C/C=N/O	inactive
CC(O)CN(CCO)N=O (configuration not stated)	active
Clc1cc(Cl)cc(-c2cc(Cl)cc(Cl)c2)c1	inactive
Oc1ccc(Cl)cc1Cl	inactive
C/C=C\c1ccc(OC)cc1	inactive
O=NN(c1ccccc1)c1ccccc1	active; inactive
Nc1ccc(N=Nc2ccc(-c3ccc(N=Nc4c(S(=O)(=O)O)cc5cc(S(=O)(=O)O)c(N=Nc6ccccc6)c(O)c5c4N)cc3)cc2)c(N)c1	active; inactive
CCN=[N+](C)[O-]	active
C=C1C[C@]23C[C@@]1(O)CC[C@H]2[C@@]12C=C[C@H](O)[C@@](C)(C(=O)O1)[C@H]2[C@@H]3C(=O)O	inactive
C[C@@H]1O[C@@]2(CS1)CN1CCC2CC1	inactive
CCN(C)N=O	active
O=C(O)Cc1cccc2ccccc12	inactive; active
O=C1NC(c2ccc([N+](=O)[O-])s2)Nc2ccccc21 (configuration not stated)	active
O=C(O)C(Cl)Cl	active; inactive
CC(C)=NNc1ncc(-c2ccc([N+](=O)[O-])o2)s1	active; inactive
C[C@@H]1Cc2c(Cl)cc(C(=O)N[C@@H](Cc3ccccc3)C(=O)O)c(O)c2C(=O)O1	active
Cc1ccc([N+](=O)[O-])cc1	active
CN(CCc1ccccc1)N=O	active
COC(=O)C(c1ccccc1)C1CCCCN1N=O (configuration not stated)	inactive
O=P(OCC(Br)CBr)(OCC(Br)CBr)OCC(Br)CBr (configuration not stated)	active

Structure (SMILES)	outcome
O=NN1CCCN(N=O)C1	active
CC(CN1c2ccccc2Sc2ccccc21)N(C)C (configuration not stated)	inactive
[Cl-].[Cl-].[Cl-].[Fe+3]	inactive
ClCOCCl	active; inactive
c1ccc2c(c1)Nc1ccccc1S2	inactive
C=CC	inactive
CCCc1ccc2c(c1)OCO2	active; inactive
C=CCOC(=O)c1ccccc1C(=O)OCC=C	inactive
CC(Cl)Cl	inactive; active
CCCNN	active
COc1cc2c(c3oc(=O)c4c(c13)CC[C@H]4O)[C@@H]1C=CO[C@H]1O2	active
CN(N=O)c1ccc([N+](=O)[O-])cc1	inactive
ClCC(Cl)Cl	active
CCOP(=O)(CC1CO1)OCC (configuration not stated)	inactive
ClCc1ccccn1	inactive
c1ccc2[nH]c(-c3cscn3)nc2c1	inactive
C=CCc1ccc(O)c(OC)c1	inactive
N#CN=C(N)N	inactive; active
Nc1c(Cl)cc(Cl)cc1Cl	active
CC(=O)OC[C@]12C[C@H](OC(=O)CC(C)C)C(C)=C[C@H]1O[C@@H]1[C@H](O)[C@@H](OC(C)=O)[C@@]2(C)C12CO2 (some centres not stated)	active; inactive
ClC(Cl)(Cl)Cl	active; inactive
O=C([O-])c1cc(N=Nc2ccc(-c3ccc(N=Nc4c(O)ccc(N=Nc5cc(S(=O)(=O)[O-])ccc5[O-])c4[O-])cc3)cc2)ccc1O.[Cu+2].[Na+].[Na+]	active; inactive
CCC1(CCC(C)C)C(=O)NC(=O)NC1=O	inactive

Structure (SMILES)	outcome
O=S1(=O)OCCO1	inactive
CN[C@H]1CC[C@@H](c2ccc(Cl)c(Cl)c2)c2ccccc21	inactive
Nc1cc(S(=O)(=O)[O-])cc2cc(S(=O)(=O)[O-])c(N=Nc3ccc(-c4ccc(N=Nc5c(S(=O)(=O)[O-])cc6cc(S(=O)(=O)[O-])cc(N)c6c5O)c(O)c4)cc3O)c(O)c12.[Cu].[Cu].[Na+].[Na+].[Na+].[Na+]	active; inactive
O=NN1CCOC(O)C1 (configuration not stated)	inactive; active
CC(=O)OC/C=C(C)/C=C/C=C(C)/C=C/C1=C(C)CCCC1(C)C	active; inactive
NNC(N)=S	inactive
c1ccc2c(c1)cc1ccc3cccc4ccc2c1c34	active; inactive
CC(=O)C(N=Nc1ccc(Cl)cc1Cl)C(=O)Nc1ccc(-c2ccc(NC(=O)C(N=Nc3ccc(Cl)cc3Cl)C(C)=O)c(C)c2)cc1C (configuration not stated)	inactive
CCOP(=S)(OCC)Oc1ccc2c(C)c(Cl)c(=O)oc2c1	inactive
O=C(O)c1cc(N=Nc2ccc(S(=O)(=O)Nc3ccccn3)cc2)ccc1O	active
COc1cc(OC)c2c3c(c(=O)oc2c1)CCC3	inactive
Cc1ccc(OP(=O)(Oc2ccc(C)cc2)Oc2ccc(C)cc2)cc1	inactive
CC(C)Oc1ccccc1OC(=O)N(C)N=O	active
C=C1CC[C@H](O)C/C1=C/C=C1\CCC[C@]2(C)[C@@H]([C@H](C)CC[C@@H](O)C(C)(C)O)CC[C@@H]12	inactive; active
CN(C)C(=S)[S][Bi]([S]C(=S)N(C)C)[S]C(=S)N(C)C	inactive
O=NN1CN2CN(C1)CN(N=O)C2	inactive
CCSCC[C@H](N)C(=O)O	active; inactive
Nc1ccccc1N	active; inactive
CC1=CC(=C(c2ccc(N)cc2)c2ccc(N)cc2)C=CC1=N	inactive
O=C1c2cccc(O)c2C(=O)c2c(O)cccc21	active
C=C(C)[C@H]1CC=C(C)CC1	active
CC(C(O)c1ccccc1)N(C)N=O (configuration not stated)	active
Nc1ccc(NC(=O)c2ccc(N)cc2)cc1	inactive; active

Structure (SMILES)	outcome
O=NN1CCC(=O)NC1=O	active
OC(Cn1cncn1)(Cn1cncn1)c1ccc(F)cc1F	active; inactive
O=C([O-])C(=O)O.O=C([O-])C(=O)O.[K+].[K+].[O]=[Ti]	inactive; active
C/[N+]([O-])=N/CO[C@@H]1O[C@H](CO)[C@@H](O)[C@H](O)[C@H]1O	active
NNc1nc(-c2ccc([N+](=O)[O-])cc2)cs1	active
CCOc1ccccc1C(N)=O	active
Brc1cc(Br)c(-c2cc(Br)c(Br)cc2Br)cc1Br	active
C=CCl	active; inactive
CCc1cccc2c3c([nH]c12)C(CC)(CC(=O)O)OCC3 (configuration not stated)	inactive
CC1(C)C(=O)Nc2ccc(C3=NNC(=O)CC3)cc21	active
CCOc1ccc(NC(N)=O)cc1	active
BrC(Br)Br	active; inactive
C=C(C)C(=O)Nc1ccc(Cl)c(Cl)c1	inactive
CCCNC(=O)NS(=O)(=O)c1ccc(Cl)cc1	inactive
COC(N)=O	active
CC(C)C[C@H]1C(=O)N2CCC[C@H]2[C@]2(O)O[C@](NC(=O)[C@@H]3C=C4c5cccc6[nH]c(Br)c(c56)C[C@H]4N(C)C3)(C(C)C)C(=O)N12	active
C=CC(O)c1ccc(OC)cc1 (configuration not stated)	active
FC(Cl)C(F)(F)F (configuration not stated)	inactive
C1CO1	active
CN(N=O)c1ccccc1	active
O=Cc1ccco1	active; inactive
Cc1cc(C)nc(-c2ccc([N+](=O)[O-])o2)n1	active
O=[N+]([O-])c1cc(N(CCO)CCO)ccc1NCCO	inactive

Structure (SMILES)	outcome
O=C(O)CNCC(=O)O	inactive
C/C=C/C=O	active
C/C=C/C=C/C=O	active
CCC[N+](=O)[O-]	inactive
CCCCCCCCCCN(C)N=O	active
CC(O)COC(C)(C)C (configuration not stated)	active
COP(=O)(OC)OC=C(Cl)Cl	active
O=CC1CO1 (configuration not stated)	inactive
C=CCNNCC=C	active; inactive
N#[N+]c1cc(CCN)ccc1[O-]	active
C/C=N/N(C)C=O	active; inactive
CN(CCO)N=O	active
OO	active; inactive
COc1ccc(C)cc1N	active
C[N+](C)(C)CCCl	inactive
CCCl	active; inactive
CN=C(NC#N)NCCSCc1nc[nH]c1C	inactive; active
CNC[C@H](O)c1cccc(O)c1	inactive
CN(C)CCO	inactive; active
COc1ccc2c3c1O[C@H]1[C@@H](O)C=C[C@H]4[C@@H](C2)N(C)CC[C@@]341	inactive
CNC(=O)Oc1cccc2ccccc12	active
Clc1ccc2c(c1)Oc1ccc(Cl)cc1O2	inactive
CCOC(=O)C(O)(c1ccc(Cl)cc1)c1ccc(Cl)cc1	active

Structure (SMILES)	outcome
CBr	inactive; active
Cc1nc(N)cc2[nH]c3ccccc3c12	active
CN(C)C(=O)Nc1ccc(Cl)cc1	active
C=CCN(CC=C)N=O	active
S=C(SSSSSSC(=S)N1CCCCC1)N1CCCCC1	inactive
Cc1ccc(N)cc1Cl	inactive; active
C=CC(OCC)OCC	inactive
O=[N+]([O-])c1ccc(Cl)cc1	active
Cc1cc(O)ccc1O	inactive; active
CC(CCl)OC(C)CCl (configuration not stated)	active
Nc1cccc2c(N)cccc12	active
CC(N)=S	active
O=C/C=C/c1ccccc1	inactive
C=Cc1ccc(C)cc1	inactive
Cc1cccc(N)c1	active; inactive
Brc1cc(-c2ccc(Br)c(Br)c2Br)cc(Br)c1Br	inactive; active
OCCBr	active; inactive
COc1ccc(C(=O)Nc2c(Cl)cncc2Cl)cc1OC1CCCC1	active
NC(=O)N(CCF)N=O	active; inactive
Cc1ccccc1S(N)(=O)=O	active
S=C(SN1CCOCC1)N1CCOCC1	active
NC(Cc1c[nH]c2ccccc12)C(=O)O (configuration not stated)	inactive
